Measured values published in US8318186B2, “Use of at least a fatty ester for preparing a composition designed to inhibit 5-α-reductase activity, in pharmacology, in particular dermatology, in cosmetics and as food additive” (Laboratoires Expanscience, priority 2000, dated 2012).
Where “and” joins values, the source holds several entries; their conditions need not be identical. Identical values can stand only once. Marks after values point to notes of the source that are not given here.

Columns and labels:
[1] = system: 5α-reductase; experiment: Fatty acid esters on 5α-reductase activity, conversion of testosterone to 5α-dihydrotestosterone in normal human dermal fibroblast cultures (Example 4); type: cell-based; design: key to group by 5α-reductase inhibitory activity: group A with the highest inhibitory activity; group B with an intermediate inhibitory activity; conditions: for inhibition of the 5α-reductase activity: Example 4, p<0.05; for 5α-DHT formed per culture well, mean / 5α-DHT formed per culture well, single well: after 24 of incubation, DMSO 0.1% (v/v); for 5α-DHT formed per culture well, single well: single replicate
Protocol: The fibroblast culture medium (FCM) consisted of MEM/M199 (3:1, v/v) supplemented with penicillin (50 IU/ml), streptomycin (50 μg/ml), sodium bicarbonate (0.2%, w/v) and FCS (10%, v/v).
The assay system consisted of normal human dermal fibroblasts cultured as a monolayer. The fibroblasts were isolated from a residue from abdominal plastic surgery performed on a person (subject BIOPREDIC No. I0013). The cells were used at the fifth passage; they were cultured until the monolayers were confluent in FCM medium at 37° C. in a humid atmosphere containing 5% CO2.
The fibroblast incubation medium (FIM) consisted of FCM supplemented with tritiated testosterone (1.6×10^−7 M, that is 6.32 μCi/ml) and nonradiolabeled testosterone (3.84×10^−6 M)
The test products and finasteride were taken up in DMSO before being diluted in the incubation medium. […]
The fibroblast cultures were preincubated in the presence of the test products or of the reference product for 2 hours before adding the substrate, testosterone. For this step, the test products and the reference product were prepared in the FCM medium.
After preincubation, the fibroblast cultures were incubated in the presence of the test products or of the reference product prepared in the FIM medium for 22 hours at 37° C. in a humid atmosphere containing 5% CO2. Control cultures were incubated in the FIM medium in the absence of test products and of reference product. […]
Each experimental condition was tested in triplicate.
After the incubation period, the cells were subjected to the action of ultrasound in the FIM medium. The cellular lysates thus obtained were extracted with dichloromethane. After evaporation, the dry residues were taken up in methanol and were deposited on 60F254 silica plates (MERCK, reference 5554).
The migration solvent was a mixture of dichloromethane and ether (7:3, v/v) At the end of the migration, the silica plates were read using a BERTHOLD radioactivity scanner.
The metabolizing of testosterone to 5α-dihydro-testosterone under the various experimental conditions was calculated: the results (areas of the 5α-dihydrotestosterone peaks counted by the BERTHOLD scanner) were expressed in pmol of 5α-dihydro-testosterone formed per culture well. They were also expressed as a percentage of the 5α-reductase activity present in the “DMSO control” group.
The groups of data (control group and treated groups) were treated by a one-way analysis of variance (ANOVA 1, p<0.05), followed by a DUNNETT's test (p<0.05). The effect of the test products and of the reference product was compared with the “DMSO control” group. The effects of the test products were compared to each other by a two-way analysis of variance (ANOVA 2, p<0.05, factor 1=concentration and factor 2=treatment).
The same materials and methods are used as in example 3 above.
It was proposed to evaluate the effect of fatty acid esters on the 5α-reductase activity. An in vitro model of normal human dermal fibroblast cultures was selected. The products tested were chosen from the group of fatty acid esters varying in the length and the functionality of the fatty chain, and the nature of the alkoxy group. These esters are the following: methyl oleate, methyl linoleate, methyl stearate, methyl laurate, methyl undecylenate, butyl oleate, oleyl oleate and methyl ricinoleate.

[2] = system: normal human dermal fibroblasts; experiment: Morphological examination of the fibroblasts (Example 4); type: cell-based; conditions: at 10 and 100 μg/ml

## CCCCCCCC/C=C\CCCCCCCCOC(=O)CCCCCCC/C=C\CCCCCCCC [Oleyl oleate, oleyl oleate]
[1]; 1 μg/ml
  5α-reductase activity as percentage of the “DMSO 0.1% (v/v)” group: 72 percentage of the “DMSO 0.1% (v/v)” group
  inhibition of the 5α-reductase activity: 28%
  5α-DHT formed per culture well, mean: 8.17* +/− pmol of 5α-DHT formed/culture well
  5α-DHT formed per culture well, single well: 9.00 pmol of 5α-DHT formed/culture well and 7.32 pmol of 5α-DHT formed/culture well and 8.20 pmol of 5α-DHT formed/culture well
[1]; 10 μg/ml
  5α-reductase activity as percentage of the “DMSO 0.1% (v/v)” group: 55 percentage of the “DMSO 0.1% (v/v)” group
  inhibition of the 5α-reductase activity: 45%
  5α-DHT formed per culture well, mean: 6.25* +/− pmol of 5α-DHT formed/culture well
  5α-DHT formed per culture well, single well: 6.12 pmol of 5α-DHT formed/culture well and 6.44 pmol of 5α-DHT formed/culture well and 6.20 pmol of 5α-DHT formed/culture well
[1]; 100 μg/ml
  5α-reductase activity as percentage of the “DMSO 0.1% (v/v)” group: 65 percentage of the “DMSO 0.1% (v/v)” group
  inhibition of the 5α-reductase activity: 35%
  5α-DHT formed per culture well, mean: 7.45* +/− pmol of 5α-DHT formed/culture well
  5α-DHT formed per culture well, single well: 6.28 pmol of 5α-DHT formed/culture well and 8.60 pmol of 5α-DHT formed/culture well and 7.48 pmol of 5α-DHT formed/culture well
[1]; tested at 1, 10 and 100 μg/ml
  group by 5α-reductase inhibitory activity: A
[2]
  state of the fibroblasts by morphological examination of the cells: cellular suffering
